Experiments:
[1] = tested on: Bacillus subtilis spores; assay: Assay of antibacterial activity (growth inhibition, absorbance at 690 nm) against Bacillus subtilis spores; format: cell-based; settings: spores 1×10^7/ml, nutrient broth pH 7.0, cultured overnight at 37° C., percent growth inhibition from absorbance at 690 nm
Method: (§1) Into each well, 50 μl of a nutrient broth (pH 7.0, NISSUI PHARMACEUTICAL CO., LTD.) was added and cultured overnight at 37° C. The light absorbance at 690 nm was measured both at the start and end of the culture by means of a micro-plate reader (Thermolab Systems, Finland). Based on the percent growth inhibition calculated from the following formula, a distribution diagram was constructed plotting percent inhibition and sample concentration on the two axes and the 50% inhibition (IC50) of the spore forming bacterium by the substances of the present invention was determined. Percent growth inhibition (%)=100×{Δ690 (not added)−Δ690 (sample added)}/Δ690 (not added) where Δ690 (not added) refers to the difference between the 690 nm values in the “not-added” group before and after the culture and Δ690 (sample added) refers to the difference between the 690 nm values in the “sample-added” group before and after the culture.

[2] = tested on: Alicyclobacillus acidoterrestris; assay: Assay of antibacterial activity (growth inhibition) against heat-resistant acidophilic spore-forming bacterium Alicyclobacillus acidoterrestris; format: cell-based; settings: culture temperature 45° C., liquid medium (yeast extract, soluble starch, glucose) adjusted to pH 3.8
Method: as §1
Activity against the heat-resistant acidophilic spore-forming bacterium Alicyclobacillus acidoterrestris was determined by taking the same procedure, except that a change was made in two points, the culture temperature condition and the type of liquid medium [culture temperature: 45° C.; liquid medium: 0.4% dry yeast extract (Difco Laboratories), 0.4% soluble starch (nacalai tesque), 1% glucose (nacalai tesque), adjusted to pH 3.8 with 1 N sulfuric acid].

Molecule	IC50 (ppm) B. subtilis [1]	IC50 (ppm) A. acidoterrestris [2]
CCCCCCCC(=O)Oc1cc(O)cc2c1C[C@H](OC(=O)CCCCCCC)[C@@H](c1ccc(O)c(O)c1)O2 [3,5-di-O-octanoyl-(+)-D-catechin]	100-200 ppm	50-100 ppm
Catechin [reference compound]	>400 ppm	50-100 ppm
3′(or 4′),7-di-O-octanoyl-(+)-D-catechin	6.25-12.5 ppm	50-100 ppm
Sucrose fatty acid ester [reference compound]	50-100 ppm	100-200 ppm
CCCCCCCC(=O)Oc1cc(O)c2c(c1)O[C@H](c1ccc(O)c(O)c1)[C@@H](OC(=O)CCCCCCC)C2 [3,7-di-O-octanoyl-(+)-D-catechin]	25-50 ppm	12.5-25 ppm
CCCCCCCC(=O)Oc1cc(OC(=O)CCCCCCC)c2c(c1)O[C@H](c1ccc(O)c(O)c1)[C@@H](O)C2 [5,7-di-O-octanoyl-(+)-D-catechin]	>400 ppm	100-200 ppm
3′-O-cotanoyl and 4′-octanoyl-(+)-D-catechin	200-400 ppm	25-50 ppm
3′(or 4′),3-di-O-octanoyl-(+)-D-catechin	3.125-6.25 ppm	6.25-12.5 ppm
CCCCCCCC(=O)Oc1ccc([C@H]2Oc3cc(O)cc(O)c3C[C@@H]2O)cc1OC(=O)CCCCCCC [3′4′-O-dioctanoyl-(+)-D-catechin]	>400 ppm	12.5-25 ppm
3′(or 4′),5-di-O-octanoyl-(+)-D-catechin	6.25-12.5 ppm	6.25-12.5 ppm

Reference: patent US20080058409A1, “Esterified Catechins, Processes for Producing the Same, and Foods and Beverages as well as Cosmetics Containing Such Esterified Catechins” (priority 2005, published 2008)
